Data as given in BindingDB's records for patent US9108978 (Monash University, 2015).

Molecular target: T1, Bifunctional ligase/repressor BirA (Staphylococcus aureus, UniProt A0A3A5LBF0)
T1 sequence (A0A3A5LBF0 whole entry): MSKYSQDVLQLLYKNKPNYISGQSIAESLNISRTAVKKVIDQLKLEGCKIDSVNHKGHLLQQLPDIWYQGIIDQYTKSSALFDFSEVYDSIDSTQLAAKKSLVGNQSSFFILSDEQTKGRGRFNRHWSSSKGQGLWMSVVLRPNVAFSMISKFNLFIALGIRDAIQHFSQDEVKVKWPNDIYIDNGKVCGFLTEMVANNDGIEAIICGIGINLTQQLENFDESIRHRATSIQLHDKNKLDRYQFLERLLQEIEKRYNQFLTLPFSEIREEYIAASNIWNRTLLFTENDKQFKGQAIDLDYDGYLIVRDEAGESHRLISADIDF
Assay: Enzyme Inhibition Assay
Conditions: pH 8; 37 °C
Description: The reaction was initiated by the addition of BPL to a final concentration of 4 nM. After 20 minutes at 37 C., 4 uL aliquots of the reaction were spotted onto Whatman paper pre-treated with biotin and trichloroacetic acid. The filters were washed twice with 10% v/v ice-cold trichloroacetic acid and once with ethanol before air-drying. Quantitation of protein-bound radiolabelled biotin was performed by liquid scintillation. One unit of enzyme activity was defined by the amount of BPL required to incorporate 1 nmol of biotin per minute. The IC50 value of each compound was determined.

For Nc1ncnc2c1ncn2[C@@H]1O[C@H](COP(=O)(O)OCCCCC[C@@H]2SC[C@@H]3NC(=O)N[C@@H]32)[C@@H](O)[C@H]1O [US9108978, 2.02], which IC50 is on record?
Its IC50 is 203 nM.

And the Ki?
Its Ki is 30 nM.
